Data taken from patent US20160010059A1, “EXPANSION OF HEMATOPOIETIC PROGENITOR CELLS BY HISTONE METHYLTRANSFERASE G9a INHIBITION” (The Regents of the University of California, priority 2013, published 2016).
Entries after “also recorded” stand apart in the source; their conditions may differ.

Columns and labels:
[1] = tested on: HSC-related genes; test: Global gene expression analysis (RNA-seq) of KLS fractions after 5 days in vitro culture; format: cell-based, mouse; details: 5 days culture
[2] = tested on: H3k9me2 on putative G9a targets; test: ChIP-qPCR of histone marks on putative G9a targets identified by RNA-seq; format: cell-based, mouse; details: n=3
[3] = tested on: KLS cells; test: Replating of cultured cells into liquid culture with SCF and TPO (proliferation capacity); format: cell-based, mouse
[4] = tested on: lethally irradiated C57BL/6 mice; test: Transplantation of cultured HSCs into lethally irradiated mice (chimerism); format: in vivo, mouse
[5] = tested on: H3K9me2 / H3K9me3; test: Histone western blot and immunofluorescence in UNC0638 treated cells; format: cell-based, mouse
Procedure: (§1) For western blot, FACS sorted cells were lysed in RIPA buffer, and run in a 15% gradient SDS-page (BIO-RAD). Histone modifications were assessed with antibodies against H3k27me3 (07-449 Millipore), H3 Acetylated (06-599), H4K16Ac (07-329), H3k4me3 (07-473), total H3 (06-755), H3k36me3 (Ab9050 abcam), H3k9me2 (Ab1220), H3k9me3 (Ab8898). Cells were incubated with the HDAC inhibitor trichostatin A (Cell signaling) at 37° C. for 2 hours to induce histone acetylation. For immunostaining cells were sorted onto poly-lysine coated slides, fixed with 2% PFA, permeabilized with 0.1% triton-x in PBS, and stained with H3k9me3 (Ab8898), Lamin B (sc-6217) antibodies followed by an Alexa488-Donkey-α-goat and a Alexa594-goat-α-rabbit secondary antibody (Invitrogen) plus DAPI. Images were acquired using a PerkinElmer Volocity spinning disk confocal microscope. Image analysis was done using ImageJ software (Schneider et al., 2012).

[6] = tested on: histone acetylation; test: Histone western blot after HDAC inhibitor treatment (assay sensitivity control); format: cell-based, mouse; details: 37° C. for 2 hours
Procedure: as §1

SMILES | downregulated genes ([1]; Egr1, Ndn, Robo4) | upregulated genes ([1]; vs DMSO control, DESEQ padj<0.01, e.g. Sox6, Itga2b, Gata1, Fgf3) | levels of H3k9me2 on putative G9a targets [2] | levels of H3k9me3 on putative G9a targets [2] | levels of active mark H3K4me3 on putative G9a targets [2] | proliferation capacity ([3]; after day 5 of in vitro culture) | proliferation capacity ([3]; replating equal amounts of KLS after 5 days culture) | number of cells ([3]; replating equal amounts of Kit+ cells, 10 days in culture) | lineage readout after transplantation ([4]; 24 hrs or 5 days culture) | Percentage of chimerism / engraftment ([4]; cells cultured for 24 hrs with UNC0638 before transplantation, n=10 per group) | Percentage of chimerism / engraftment ([4]; cells cultured for 5 days on AFT024 feeder layers with UNC0638 before transplantation, n=10) | amount of H3K9me2 by western blot ([5]; UNC0638 treated cells) | distribution of H3K9me3 by immunofluorescence ([5]; compared to the DMSO treated control) | global levels of histone acetylation [6]
COc1cc2c(NC3CCN(C(C)C)CC3)nc(C3CCCCC3)nc2cc1OCCCN1CCCC1 [UNC0638] | significantly downregulation of some genes | significant number of HSC-related genes upregulated; also recorded: significant number of upregulated HSC-related genes | significantly lower amount of H3K9me2 at their promoter; also recorded: significantly reduced levels of H3k9me2 | trend to lower amount of H3K9me3; also recorded: mild trend toward H3k9me3 reduction | no differences for the active mark H3K4me3 | increase proliferation capacity after day 5 | equal proliferation capacity as the KLS control cells | significant higher number of cells after 10 days in culture | no defects in lineage potential; also recorded: readout in all 5 lineages | minor increase in engraftment; also recorded: positive trend in higher chimerism for UNC0638 treated cells in all myeloid and lymphoid lineages, though not significant | modest increase in the levels of engraftment; also recorded: significantly higher % of GM and B chimerism | effect is highly enriched in the KLS fraction | more disperse distribution of this histone mark | 
CC(/C=C/C(=O)NO)=C\[C@@H](C)C(=O)c1ccc(N(C)C)cc1 [trichostatin A] |  |  |  |  |  |  |  |  |  |  |  |  |  | significantly increased the global levels of histone acetylation
